Measurements from the NIST ThermoML archive (doi:10.1016/j.tca.2014.05.034).
Numbers after ± are expanded uncertainties.

Assay: xn = mol fraction of the nth substance listed
Settings: 100 kPa, Liquid; for mass density: Pycnometric method; for kinematic viscosity: Capillary tube (Ostwald / Ubbelohde) method

NCCN [ethane-1,2-diamine] + OCCOCCO
Settings | kinematic viscosity, 313.15 K [m2/s] | kinematic viscosity, 318.15 K [m2/s] | mass density, 308.15 K [kg/m3] | mass density, 313.15 K [kg/m3] | mass density, 318.15 K [kg/m3]
x1 = 0.085 | 1.54e-05 ± 1e-07 | 1.3e-05 ± 1e-07 | 1097.7 ± 0.7 | 1094.3 ± 0.7 | 1091 ± 0.7
x1 = 0.164 | 1.71e-05 ± 1e-07 | 1.43e-05 ± 1e-07 | 1089.4 ± 0.7 | 1085.8 ± 0.7 | 1082.5 ± 0.7
x1 = 0.2376 | 1.82e-05 ± 2e-07 | 1.51e-05 ± 1e-07 | 1080.3 ± 0.7 | 1076.8 ± 0.7 | 1073.4 ± 0.7
x1 = 0.3062 | 1.85e-05 ± 2e-07 | 1.53e-05 ± 1e-07 | 1070.8 ± 0.7 | 1067.2 ± 0.7 | 1063.6 ± 0.7
x1 = 0.3705 | 1.78e-05 ± 2e-07 | 1.47e-05 ± 1e-07 | 1060.8 ± 0.7 | 1057.1 ± 0.7 | 1053.4 ± 0.7
x1 = 0.4308 | 1.64e-05 ± 1e-07 | 1.35e-05 ± 1e-07 | 1050.1 ± 0.7 | 1046.4 ± 0.7 | 1042.8 ± 0.7
x1 = 0.4874 | 1.43e-05 ± 1e-07 | 1.19e-05 ± 1e-07 | 1039.1 ± 0.7 | 1035.3 ± 0.7 | 1031.7 ± 0.7
x1 = 0.5407 | 1.19e-05 ± 1e-07 | 1e-05 ± 1e-07 | 1027 ± 0.7 | 1023.1 ± 0.7 | 1019.5 ± 0.7
x1 = 0.5909 | 9.68e-06 ± 8e-08 | 8.16e-06 ± 7e-08 | 1015 ± 0.7 | 1011.1 ± 0.7 | 1007.4 ± 0.7
x1 = 0.6384 | 7.83e-06 ± 6e-08 | 6.79e-06 ± 6e-08 | 1003.1 ± 0.7 | 999.3 ± 0.7 | 995.4 ± 0.7
x1 = 0.6834 | 6.21e-06 ± 5e-08 | 5.45e-06 ± 5e-08 | 990 ± 0.7 | 986.2 ± 0.7 | 982.5 ± 0.7
x1 = 0.7259 | 5.07e-06 ± 4e-08 | 4.5e-06 ± 4e-08 | 978.9 ± 0.7 | 975 ± 0.7 | 971.2 ± 0.7
x1 = 0.7663 | 4.05e-06 ± 4e-08 | 3.65e-06 ± 3e-08 | 966 ± 0.7 | 962.4 ± 0.7 | 958.5 ± 0.7
x1 = 0.8047 | 3.28e-06 ± 3e-08 | 2.96e-06 ± 3e-08 | 953.3 ± 0.7 | 949.5 ± 0.7 | 945.9 ± 0.7
x1 = 0.876 | 2.26e-06 ± 2e-08 | 2.08e-06 ± 2e-08 | 930.4 ± 0.7 | 926.6 ± 0.7 | 922.9 ± 0.7
x1 = 0.9408 | 1.63e-06 ± 2e-08 | 1.52e-06 ± 1e-08 | 908.5 ± 0.7 | 904.8 ± 0.7 | 901.2 ± 0.7
x1 = 1 | 1.17e-06 ± 1e-08 | 1.08e-06 ± 1e-08 | 884.9 ± 0.7 | 880 ± 0.7 | 875.2 ± 0.7
